Reference: US8501752B2, “Methods for treating cancer and other pathological proliferating disorders by inhibiting mitosis using pyrrolo[2,3-d]pyrimidines” (Duquesne University of the Holy Ghost, priority 2005, dated 2013)
Entries after “also recorded” stand apart in the source; their conditions may differ. Like-named read-outs stand apart in the source and are kept apart here.

Legend:
[1] = test system: UACC-257; assay: NCI IVCLSP growth inhibition (SRB), UACC-257; assay type: cell-based, human; conditions: 48 h drug incubation
Protocol: (§1) FIG. 1 presents nine compounds that were tested using the National Cancer Institute (NCI) 60 human tumor cell lines. The cells lines, which represent leukemia, melanoma, and cancers of the lung, colon, brain, ovary, breast, prostate, and kidney, are listed in Table 1.
(§2) Compounds 1-9 were tested according to the NCI Developmental Therapeutics Program (DTP) In Vitro Cell Line Screening Project (IVCLSP). […] Methodology for testing under the IVCLSP is as follows: The human tumor cell lines of the cancer screening panel are grown in RPMI 1640 medium containing 5% fetal bovine serum and 2 mM L-glutamine. […]
(§3) Following drug addition, the plates are incubated for an additional 48 h at 37° C., 5% CO2, 95% air, and 100% relative humidity. […] Bound stain is subsequently solubilized with 10 mM trizma base, and the absorbance is read on an automated plate reader at a wavelength of 515 nm. […] Using the seven absorbance measurements [time zero, (Tz), control growth, (C), and test growth in the presence of drug at the five concentration levels (Ti)], the percentage growth is calculated at each of the drug concentrations levels. Percentage growth inhibition is calculated as: [(Ti−Tz)/(C−Tz)]×100 for concentrations for which Ti>/=Tz [(Ti−Tz)/Tz]×100 for concentrations for which Ti<Tz.
(§4) Three dose response parameters are calculated for each experimental agent. […]

[2] = test system: HOP-92; assay: NCI IVCLSP growth inhibition (SRB), HOP-92; assay type: cell-based, human; conditions: 48 h drug incubation
Protocol: as §1, §2, §3, §4

[3] = test system: IGROVI; assay: NCI IVCLSP growth inhibition (SRB), IGROVI; assay type: cell-based, human; conditions: 48 h drug incubation
Protocol: as §1, §2, §3, §4

[4] = test system: U251; assay: NCI IVCLSP growth inhibition (SRB), U251; assay type: cell-based, human; conditions: 48 h drug incubation
Protocol: as §1, §2, §3, §4

[5] = test system: MDA-MB-231/ATCC; assay: NCI IVCLSP growth inhibition (SRB), MDA-MB-231/ATCC; assay type: cell-based, human; conditions: 48 h drug incubation
Protocol: as §1, §2, §3, §4

[6] = test system: MCF7; assay: NCI IVCLSP growth inhibition (SRB), MCF7; assay type: cell-based, human; conditions: 48 h drug incubation
Protocol: as §1, §2, §3, §4

[7] = test system: NCI 60 human tumor cell lines; assay: NCI IVCLSP growth inhibition, whole panel (text summaries); assay type: cell-based
Protocol: as §1
Compounds 1-9 were tested according to the NCI Developmental Therapeutics Program (DTP) In Vitro Cell Line Screening Project (IVCLSP). […] Methodology for testing under the IVCLSP is as follows: The human tumor cell lines of the cancer screening panel are grown in RPMI 1640 medium containing 5% fetal bovine serum and 2 mM L-glutamine. For a typical screening experiment, cells are inoculated into 96 well microtiter plates in 100 μL at plating densities ranging from 5,000 to 40,000 cells/well depending on the doubling time of individual cell lines. After cell inoculation, the microtiter plates are incubated at 37° C., 5% CO2, 95% air and 100% relative humidity for 24 h prior to addition of experimental drugs.
After 24 h, two plates of each cell line are fixed in situ with TCA, to represent a measurement of the cell population for each cell line at the time of drug addition (Tz). Experimental drugs are solubilized in dimethyl sulfoxide at 400-fold the desired final maximum test concentration and stored frozen prior to use. At the time of drug addition, an aliquot of frozen concentrate is thawed and diluted to twice the desired final maximum test concentration with complete medium containing 50 μg/ml gentamicin. Additional four, 10-fold or ½ log serial dilutions are made to provide a total of five drug concentrations plus control. Aliquots of 100 μl of these different drug dilutions are added to the appropriate microtiter wells already containing 100 μl of medium, resulting in the required final drug concentrations.
Following drug addition, the plates are incubated for an additional 48 h at 37° C., 5% CO2, 95% air, and 100% relative humidity. For adherent cells, the assay is terminated by the addition of cold TCA. Cells are fixed in situ by the gentle addition of 50 μl of cold 50% (w/v) TCA (final concentration, 10% TCA) and incubated for 60 minutes at 4° C. The supernatant is discarded, and the plates are washed five times with tap water and air dried. Sulforhodamine B (SRB) solution (100 μl) at 0.4% (w/v) in 1% acetic acid is added to each well, and plates are incubated for 10 minutes at room temperature. After staining, unbound dye is removed by washing five times with 1% acetic acid and the plates are air dried. Bound stain is subsequently solubilized with 10 mM trizma base, and the absorbance is read on an automated plate reader at a wavelength of 515 nm. For suspension cells, the methodology is the same except that the assay is terminated by fixing settled cells at the bottom of the wells by gently adding 50 μl of 80% TCA (final concentration, 16% TCA). Using the seven absorbance measurements [time zero, (Tz), control growth, (C), and test growth in the presence of drug at the five concentration levels (Ti)], the percentage growth is calculated at each of the drug concentrations levels. Percentage growth inhibition is calculated as: [(Ti−Tz)/(C−Tz)]×100 for concentrations for which Ti>/=Tz [(Ti−Tz)/Tz]×100 for concentrations for which Ti<Tz.
Three dose response parameters are calculated for each experimental agent. […] The drug concentration resulting in total growth inhibition (TGI) is calculated from Ti=Tz. […]

[8] = test system: UACC-62; assay: NCI IVCLSP growth inhibition (SRB), UACC-62; assay type: cell-based, human; conditions: 48 h drug incubation
Protocol: as §1, §2, §3, §4

[9] = test system: NCI-H23; assay: NCI IVCLSP growth inhibition (SRB), NCI-H23; assay type: cell-based, human; conditions: 48 h drug incubation
Protocol: as §1, §2, §3, §4

[10] = test system: A-10 rat smooth muscle cells; assay: Microtubule structure, indirect immunofluorescence, A-10 cells; assay type: cell-based; conditions: 24 hours; 625 nM TAXOL, 167 nM vinblastine, 900 nM Compound 1
Protocol: Because of the morphological effects of Compound 1 on cultured cells and the NCI COMPARE analysis results described above, the effects of vinblastine, TAXOL (paclitaxel), and Compound 1 on microtubule structure were examined. For these studies, A-10 rat smooth muscle cells were used since they grow as flat monolayers that are amenable to imaging. The A-10 cells were treated for 24 hours with EtOH (control), 625 nM TAXOL (paclitaxel), 167 nM vinblastine, and 900 nM of Compound 1. Microtubules were then visualized by indirect immunofluoresence staining with B-tubulin antibodies. FIGS. 2a-d present representative fields for the control, TAXOL (paclitaxel), vinblastine, and Compound 1 (“149”), respectively. None of these compounds affected the morphology of stress fibers composed of microfilaments.

[11] = test system: MCF-7 cells; assay: Cytotoxicity, drug-sensitive MCF-7 cells; conditions: mean ± SEM for 3 experiments
Excerpt: (§5) These cell lines are resistant to anticancer drugs due to overexpression of the transport proteins P-glycoprotein or MRP1.

[12] = test system: RXF 393; assay: NCI IVCLSP growth inhibition (SRB), RXF 393; assay type: cell-based, human; conditions: 48 h drug incubation
Protocol: as §1, §2, §3, §4

[13] = test system: T-47D; assay: NCI IVCLSP growth inhibition (SRB), T-47D; assay type: cell-based, human; conditions: 48 h drug incubation
Protocol: as §1, §2, §3, §4

[14] = test system: NCI/ADR cells; assay: Cytotoxicity, NCI/ADR cells that overexpress P-glycoprotein; conditions: for IC50: mean ± SEM for 3 experiments
Excerpt: as §5

[15] = test system: OVCAR-4; assay: NCI IVCLSP growth inhibition (SRB), OVCAR-4; assay type: cell-based, human; conditions: 48 h drug incubation
Protocol: as §1, §2, §3, §4

[16] = test system: EKVX; assay: NCI IVCLSP growth inhibition (SRB), EKVX; assay type: cell-based, human; conditions: 48 h drug incubation
Protocol: as §1, §2, §3, §4

[17] = test system: SR; assay: NCI IVCLSP growth inhibition (SRB), SR; assay type: cell-based, human; conditions: 48 h drug incubation
Protocol: as §1, §2, §3, §4

[18] = test system: HT29; assay: NCI IVCLSP growth inhibition (SRB), HT29; assay type: cell-based, human; conditions: 48 h drug incubation
Protocol: as §1, §2, §3, §4

[19] = test system: OVCAR-8; assay: NCI IVCLSP growth inhibition (SRB), OVCAR-8; assay type: cell-based, human; conditions: 48 h drug incubation
Protocol: as §1, §2, §3, §4

**Q.** With COc1cc(CCc2cn(Cc3ccccc3)c3nc(N)nc(C)c23)cc(OC)c1OC [Compound 1] as the molecule, how does the GI50 [1] read?
**A.** The GI50 was 80.2 nM.

**Q.** What about the GI50 [2] of the same molecule?
**A.** Its GI50 is 467 nM.

**Q.** What about the GI50 [3] of the same molecule?
**A.** Its GI50 is 61.1 nM.

**Q.** And the GI50 [4]?
**A.** The GI50 was 144 nM.

**Q.** What about the GI50 [5] of the same molecule?
**A.** The GI50 was 595 nM.

**Q.** And the GI50 [6]?
**A.** The GI50 was 118 nM.

**Q.** What about the “GI50 values, level across the tumor cell lines (in words)” value ([7]; NCI 60 tumor panel) of the same molecule?
**A.** The value was “nanomolar to submicromolar levels; also recorded: single or two digit nanomolar levels against 16 tumor cell lines; also recorded: submicromolar levels against 40 tumor cell lines; also recorded: micromolar levels against 3 tumor cell lines”.

**Q.** And the “average GI50” value ([7]; requirement for a microtubule-targeting agent, satisfied)?
**A.** Its value is “one μM or less”.

**Q.** And the GI50 [8]?
**A.** The GI50 was 39.9 nM.

**Q.** And the GI50 [9]?
**A.** The GI50 was 278 nM.

**Q.** And the “effect on microtubule structure (in words)” value [10]?
**A.** The value was “caused dose-dependent losses of microtubules”.

**Q.** And the IC50 ([11]; read-out: Cytotoxicity IC50, MCF-7)?
**A.** The IC50 was 300 ± 160 nM.

**Q.** What about the IC50 ([11]; read-out: drug sensitivity (IC50), MCF-7, Table 4) of the same molecule?
**A.** The IC50 was 280 ± 10 nM.

**Q.** And the GI50 [12]?
**A.** The GI50 was 134 nM.

**Q.** And the GI50 [13]?
**A.** Its GI50 is 563 nM.

**Q.** And the “Resistance (NCI/ADR relative to MCF-7)” value ([14]; P-glycoprotein)?
**A.** The value was 1.3.

**Q.** What about the IC50 ([14]; read-out: Cytotoxicity IC50, NCI/ADR) of the same molecule?
**A.** The IC50 was 250 ± 120 nM.

**Q.** And the IC50 ([14]; read-out: drug sensitivity (IC50), NCI/ADR, Table 4, P-glycoprotein overexpressing)?
**A.** The IC50 was 350 ± 40 nM.

**Q.** And the GI50 [15]?
**A.** The GI50 was 821 nM.

**Q.** And the GI50 [16]?
**A.** Its GI50 is 424 nM.

**Q.** What about the GI50 [17] of the same molecule?
**A.** The GI50 was 31.4 nM.

**Q.** And the GI50 [18]?
**A.** Its GI50 is 281 nM.

**Q.** What about the GI50 [19] of the same molecule?
**A.** Its GI50 is 364 nM.
